Test results: patent US20190263796A1, “LIM KINASE INHIBITORS, PHARMACEUTICAL COMPOSITION AND METHOD OF USE IN LIMK-MEDIATED DISEASES” (CELLIPSE, priority 2016, published 2019)
Read-outs that look alike come from different tables or passages of the source.

How the values were obtained:
[1] = system: Phospho-Ser3-Cofilin/Total Cofilin; test: Western blot cofilin phosphorylation, HL-60; format: cell-based; conditions: HL-60 cells, 2 h
Procedure: HL-60 cell line was originally purchased from the Leibniz-Institut Deutsche Sammlung von Mikroorganismen und Zellkulturen GmbH (DSMZ). HL-60 cells are cultured in RPMI 1640 10% (v/v) FBS supplemented with 100 U/mL^−1 penicillin, 0.1 mg·mL^−1 streptomycin (PAN Biotech P06-07100). Cells were maintained at 37° C. with 5% CO2.
In a 6 wells plate (Falcon 353046), 2·10^6 cells in 1.5 mL medium are treated for 2 h with compounds. Cells are then collected and cell lysis is performed at 4° C. using RIPA buffer supplemented with protease inhibitors cocktail (Sigma-Aldrich P8340) and phosphatase inhibitors cocktail (Sigma-Aldrich P5726). Following centrifugation 30 min 15000 g 4° C., supernatants are mixed with Laemmli buffer and denaturation is performed by heating 5 min 95° C. 10 μL of samples are subjected to electrophoresis on 15% SDS-PAGE. After electro-transfer (Mini Transblot, Bio-Rad), the PVDF membrane (Merck-Millipore Immobilon P IPVH00010) is blocked with Tris Buffered Saline, pH 7.4 (TBS) with 0.1% Tween 20 and 5% BSA for 1 h RT under agitation. The membrane was rinsed 3 times 10 min at room temperature under agitation with TBS, 0.1% Tween-20 (TBST) and then 1 h at room temperature with anti-phospho-Ser3-cofilin (Cell Signaling Technology #3313, 1/1000 dilution) antibody or anti-cofilin (Cell Signaling Technology #3312, 1/1000 dilution) diluted in TBS, 0.1% Tween 20 and 1% BSA. The membrane is then rinsed 3 times 10 min at room temperature under agitation in TBST and incubated for 1 h with anti-rabbit secondary antibody, horseradish peroxidase conjugated (Jackson Immunoresearch #711-036-152) under agitation at room temperature. After three washes 10 min at room temperature in TBST, the detection of total or phosphorylated cofilin was performed using chemiluminescence kit ECL™ Plus (GE Healthcare RPN2132). For each concentration of compound, ratio between phosphorylated cofilin and total cofilin is determined. This ratio is then expressed as percentage of control ratio (i.e., ratio from DMSO treated cells). IC50 Phospho-Ser3-Cofilin/Total Cofilin is then determined.

SAPK2a(h) = biological target: T1, SAPK2a(h) (Homo sapiens, UniProt Q16539); test: KinaseProfiler panel: SAPK2a(h); format: biochemical; conditions: residual activity, 5 μM inhibitor, Km ATP
T1 construct: purchased Merck-Millipore (KinaseProfiler panel service)
T1 sequence (Q16539 whole entry): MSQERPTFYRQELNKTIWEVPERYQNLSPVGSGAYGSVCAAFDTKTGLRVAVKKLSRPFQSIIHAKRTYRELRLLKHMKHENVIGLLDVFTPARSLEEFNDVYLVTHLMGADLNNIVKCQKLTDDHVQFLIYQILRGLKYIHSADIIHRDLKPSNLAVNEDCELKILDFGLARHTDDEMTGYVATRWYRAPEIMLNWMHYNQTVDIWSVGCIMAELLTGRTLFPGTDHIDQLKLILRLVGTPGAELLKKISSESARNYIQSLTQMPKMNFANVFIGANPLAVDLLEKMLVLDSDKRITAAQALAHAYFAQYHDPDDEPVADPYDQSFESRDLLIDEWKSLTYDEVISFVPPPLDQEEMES
Procedure: (§1) Kinase selectivity was performed on a panel of 58 recombinant protein kinases. The assays were performed in the presence of 5 μM inhibitor at the respective Km ATP for each kinase, using the KinaseProfiler panel service (Merck-Millipore). Residual activity measured in the presence of […] inhibitor is expressed as the percent of activity determined in the absence of inhibitor.

IR(h), activated = biological target: T2, IR(h), activated (Homo sapiens, UniProt P06213); test: KinaseProfiler panel: IR(h), activated; format: biochemical; conditions: residual activity, 5 μM inhibitor, Km ATP
T2 construct: purchased Merck-Millipore (KinaseProfiler panel service)
T2 sequence (P06213 28-1382): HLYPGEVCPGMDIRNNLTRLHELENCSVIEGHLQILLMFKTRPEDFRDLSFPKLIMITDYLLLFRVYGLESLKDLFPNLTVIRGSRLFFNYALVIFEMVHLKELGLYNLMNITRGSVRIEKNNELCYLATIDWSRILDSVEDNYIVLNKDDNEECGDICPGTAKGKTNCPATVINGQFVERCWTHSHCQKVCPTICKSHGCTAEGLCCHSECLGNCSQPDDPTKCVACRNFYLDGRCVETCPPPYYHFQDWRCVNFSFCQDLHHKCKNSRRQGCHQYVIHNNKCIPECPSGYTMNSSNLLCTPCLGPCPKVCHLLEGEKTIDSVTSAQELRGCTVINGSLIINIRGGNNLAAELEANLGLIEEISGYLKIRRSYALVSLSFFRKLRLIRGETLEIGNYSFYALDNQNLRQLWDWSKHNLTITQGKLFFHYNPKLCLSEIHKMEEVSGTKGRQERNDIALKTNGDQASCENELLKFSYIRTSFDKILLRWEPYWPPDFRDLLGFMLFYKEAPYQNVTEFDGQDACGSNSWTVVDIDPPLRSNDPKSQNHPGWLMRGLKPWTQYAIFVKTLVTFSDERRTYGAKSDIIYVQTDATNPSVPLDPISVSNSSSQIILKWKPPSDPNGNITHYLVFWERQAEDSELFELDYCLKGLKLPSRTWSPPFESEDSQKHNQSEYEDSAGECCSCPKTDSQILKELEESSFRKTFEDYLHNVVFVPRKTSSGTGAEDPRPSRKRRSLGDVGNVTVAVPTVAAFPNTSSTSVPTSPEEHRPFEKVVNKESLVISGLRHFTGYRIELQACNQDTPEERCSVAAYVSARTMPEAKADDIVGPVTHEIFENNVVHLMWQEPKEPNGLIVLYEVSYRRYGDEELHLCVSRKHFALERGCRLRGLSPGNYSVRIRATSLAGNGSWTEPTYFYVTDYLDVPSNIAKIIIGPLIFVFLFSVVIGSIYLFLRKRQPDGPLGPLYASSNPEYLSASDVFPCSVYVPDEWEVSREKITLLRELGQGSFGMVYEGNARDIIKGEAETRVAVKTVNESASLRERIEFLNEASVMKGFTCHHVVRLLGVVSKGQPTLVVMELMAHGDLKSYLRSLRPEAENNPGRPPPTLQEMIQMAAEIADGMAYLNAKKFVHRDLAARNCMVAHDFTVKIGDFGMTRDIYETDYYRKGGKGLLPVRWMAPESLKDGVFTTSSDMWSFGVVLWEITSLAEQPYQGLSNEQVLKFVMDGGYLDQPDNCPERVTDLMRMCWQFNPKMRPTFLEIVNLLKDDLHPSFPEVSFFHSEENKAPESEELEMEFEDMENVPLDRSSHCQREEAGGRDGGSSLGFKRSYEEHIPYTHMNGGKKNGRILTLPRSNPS
Procedure: as §1

PAK4(h) = biological target: T3, PAK4(h) (Homo sapiens, UniProt O96013); test: KinaseProfiler panel: PAK4(h); format: biochemical; conditions: residual activity, 5 μM inhibitor, Km ATP
T3 construct: purchased Merck-Millipore (KinaseProfiler panel service)
Procedure: as §1

[2] = biological target: T4, PI3 Kinase (p110a(E542K)/p85a)(h) (Homo sapiens, UniProt P42336, E542K); test: KinaseProfiler panel: PI3 Kinase (p110a(E542K)/p85a)(h); format: biochemical; conditions: residual activity, 5 μM inhibitor, Km ATP
T4 construct: purchased Merck-Millipore (KinaseProfiler panel service)
Procedure: as §1

p70S6K(h) = biological target: T5, p70S6K(h) (Homo sapiens, UniProt P23443); test: KinaseProfiler panel: p70S6K(h); format: biochemical; conditions: residual activity, 5 μM inhibitor, Km ATP
T5 construct: purchased Merck-Millipore (KinaseProfiler panel service)
Procedure: as §1

Plk3(h) = biological target: T6, Plk3(h) (Homo sapiens, UniProt Q9H4B4); test: KinaseProfiler panel: Plk3(h); format: biochemical; conditions: residual activity, 5 μM inhibitor, Km ATP
T6 construct: purchased Merck-Millipore (KinaseProfiler panel service)
T6 sequence (Q9H4B4 whole entry): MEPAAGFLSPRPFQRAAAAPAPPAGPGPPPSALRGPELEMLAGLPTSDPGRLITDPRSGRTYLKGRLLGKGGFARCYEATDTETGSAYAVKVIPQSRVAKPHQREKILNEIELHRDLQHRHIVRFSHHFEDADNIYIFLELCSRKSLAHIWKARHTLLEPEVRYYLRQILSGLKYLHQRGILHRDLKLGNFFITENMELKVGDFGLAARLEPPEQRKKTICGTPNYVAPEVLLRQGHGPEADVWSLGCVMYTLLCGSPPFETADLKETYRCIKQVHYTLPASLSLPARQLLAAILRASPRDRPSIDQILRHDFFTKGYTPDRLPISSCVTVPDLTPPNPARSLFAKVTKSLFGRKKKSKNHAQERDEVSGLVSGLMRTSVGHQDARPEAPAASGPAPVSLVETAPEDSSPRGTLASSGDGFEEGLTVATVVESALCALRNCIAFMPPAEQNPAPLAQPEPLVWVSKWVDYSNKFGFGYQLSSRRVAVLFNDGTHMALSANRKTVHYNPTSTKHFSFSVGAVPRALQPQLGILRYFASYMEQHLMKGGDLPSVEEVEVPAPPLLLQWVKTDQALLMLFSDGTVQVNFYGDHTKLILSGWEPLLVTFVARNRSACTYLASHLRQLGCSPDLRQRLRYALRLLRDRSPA
Procedure: as §1

FAK(h) = biological target: T7, FAK(h) (Homo sapiens, UniProt Q05397); test: KinaseProfiler panel: FAK(h); format: biochemical; conditions: residual activity, 5 μM inhibitor, Km ATP
T7 construct: purchased Merck-Millipore (KinaseProfiler panel service)
T7 sequence (Q05397 whole entry): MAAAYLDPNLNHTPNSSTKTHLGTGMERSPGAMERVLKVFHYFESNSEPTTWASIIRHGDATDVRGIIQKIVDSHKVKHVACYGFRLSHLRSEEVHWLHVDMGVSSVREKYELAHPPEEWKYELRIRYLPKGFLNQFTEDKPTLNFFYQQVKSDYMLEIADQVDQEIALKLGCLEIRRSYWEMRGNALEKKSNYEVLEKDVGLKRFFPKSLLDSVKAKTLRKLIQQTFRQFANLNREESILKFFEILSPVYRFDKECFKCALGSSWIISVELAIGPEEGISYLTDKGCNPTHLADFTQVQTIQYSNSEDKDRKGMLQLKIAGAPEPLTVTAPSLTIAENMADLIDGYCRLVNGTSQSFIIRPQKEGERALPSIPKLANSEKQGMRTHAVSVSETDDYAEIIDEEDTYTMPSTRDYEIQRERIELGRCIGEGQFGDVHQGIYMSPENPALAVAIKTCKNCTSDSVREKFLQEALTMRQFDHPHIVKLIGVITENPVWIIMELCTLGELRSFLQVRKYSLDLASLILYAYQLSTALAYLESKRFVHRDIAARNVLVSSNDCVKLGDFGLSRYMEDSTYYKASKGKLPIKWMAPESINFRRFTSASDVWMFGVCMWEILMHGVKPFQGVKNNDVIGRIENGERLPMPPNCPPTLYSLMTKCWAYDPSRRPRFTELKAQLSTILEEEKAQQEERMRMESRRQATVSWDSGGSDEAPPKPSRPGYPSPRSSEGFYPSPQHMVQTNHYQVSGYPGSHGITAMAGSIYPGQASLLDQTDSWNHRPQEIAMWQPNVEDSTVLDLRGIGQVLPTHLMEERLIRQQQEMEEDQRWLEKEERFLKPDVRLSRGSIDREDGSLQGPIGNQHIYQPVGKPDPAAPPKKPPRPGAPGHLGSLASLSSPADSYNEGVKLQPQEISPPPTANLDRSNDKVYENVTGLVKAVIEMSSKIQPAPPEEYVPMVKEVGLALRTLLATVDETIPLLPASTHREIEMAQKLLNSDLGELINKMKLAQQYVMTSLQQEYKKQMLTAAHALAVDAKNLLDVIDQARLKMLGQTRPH
Procedure: as §1

Flt1(h) = biological target: T8, Flt1(h) (Homo sapiens, UniProt P17948); test: KinaseProfiler panel: Flt1(h); format: biochemical; conditions: residual activity, 5 μM inhibitor, Km ATP
T8 construct: purchased Merck-Millipore (KinaseProfiler panel service)
Procedure: as §1

KDR(h) = biological target: T9, KDR(h) (Homo sapiens, UniProt P35968); test: KinaseProfiler panel: KDR(h); format: biochemical; conditions: residual activity, 5 μM inhibitor, Km ATP
T9 construct: purchased Merck-Millipore (KinaseProfiler panel service)
Procedure: as §1

Aurora-B(h) = biological target: T10, Aurora-B(h) (Homo sapiens, UniProt Q96GD4); test: KinaseProfiler panel: Aurora-B(h); format: biochemical; conditions: residual activity, 5 μM inhibitor, Km ATP
T10 construct: purchased Merck-Millipore (KinaseProfiler panel service)
T10 sequence (Q96GD4 whole entry): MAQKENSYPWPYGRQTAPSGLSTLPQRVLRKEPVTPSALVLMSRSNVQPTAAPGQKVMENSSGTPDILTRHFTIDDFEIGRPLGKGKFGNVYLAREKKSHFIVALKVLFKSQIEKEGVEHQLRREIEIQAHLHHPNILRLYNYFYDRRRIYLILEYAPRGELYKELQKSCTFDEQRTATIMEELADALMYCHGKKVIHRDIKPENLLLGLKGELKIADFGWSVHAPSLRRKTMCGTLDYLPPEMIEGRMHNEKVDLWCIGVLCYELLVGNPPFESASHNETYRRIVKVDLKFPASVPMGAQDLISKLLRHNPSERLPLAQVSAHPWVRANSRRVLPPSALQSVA
Procedure: as §1

c-RAF(h) = biological target: T11, c-RAF(h) (Homo sapiens, UniProt P04049); test: KinaseProfiler panel: c-RAF(h); format: biochemical; conditions: residual activity, 5 μM inhibitor, Km ATP
T11 construct: purchased Merck-Millipore (KinaseProfiler panel service)
Procedure: as §1

Abl(h) = biological target: T12, Abl(h) (Homo sapiens, UniProt P00519); test: KinaseProfiler panel: Abl(h); format: biochemical; conditions: residual activity, 5 μM inhibitor, Km ATP
T12 construct: purchased Merck-Millipore (KinaseProfiler panel service)
Procedure: as §1

IGF-1R(h), activated = biological target: T13, IGF-1R(h), activated (Homo sapiens, UniProt P08069); test: KinaseProfiler panel: IGF-1R(h), activated; format: biochemical; conditions: residual activity, 5 μM inhibitor, Km ATP
T13 construct: purchased Merck-Millipore (KinaseProfiler panel service)
T13 sequence (P08069 31-1367): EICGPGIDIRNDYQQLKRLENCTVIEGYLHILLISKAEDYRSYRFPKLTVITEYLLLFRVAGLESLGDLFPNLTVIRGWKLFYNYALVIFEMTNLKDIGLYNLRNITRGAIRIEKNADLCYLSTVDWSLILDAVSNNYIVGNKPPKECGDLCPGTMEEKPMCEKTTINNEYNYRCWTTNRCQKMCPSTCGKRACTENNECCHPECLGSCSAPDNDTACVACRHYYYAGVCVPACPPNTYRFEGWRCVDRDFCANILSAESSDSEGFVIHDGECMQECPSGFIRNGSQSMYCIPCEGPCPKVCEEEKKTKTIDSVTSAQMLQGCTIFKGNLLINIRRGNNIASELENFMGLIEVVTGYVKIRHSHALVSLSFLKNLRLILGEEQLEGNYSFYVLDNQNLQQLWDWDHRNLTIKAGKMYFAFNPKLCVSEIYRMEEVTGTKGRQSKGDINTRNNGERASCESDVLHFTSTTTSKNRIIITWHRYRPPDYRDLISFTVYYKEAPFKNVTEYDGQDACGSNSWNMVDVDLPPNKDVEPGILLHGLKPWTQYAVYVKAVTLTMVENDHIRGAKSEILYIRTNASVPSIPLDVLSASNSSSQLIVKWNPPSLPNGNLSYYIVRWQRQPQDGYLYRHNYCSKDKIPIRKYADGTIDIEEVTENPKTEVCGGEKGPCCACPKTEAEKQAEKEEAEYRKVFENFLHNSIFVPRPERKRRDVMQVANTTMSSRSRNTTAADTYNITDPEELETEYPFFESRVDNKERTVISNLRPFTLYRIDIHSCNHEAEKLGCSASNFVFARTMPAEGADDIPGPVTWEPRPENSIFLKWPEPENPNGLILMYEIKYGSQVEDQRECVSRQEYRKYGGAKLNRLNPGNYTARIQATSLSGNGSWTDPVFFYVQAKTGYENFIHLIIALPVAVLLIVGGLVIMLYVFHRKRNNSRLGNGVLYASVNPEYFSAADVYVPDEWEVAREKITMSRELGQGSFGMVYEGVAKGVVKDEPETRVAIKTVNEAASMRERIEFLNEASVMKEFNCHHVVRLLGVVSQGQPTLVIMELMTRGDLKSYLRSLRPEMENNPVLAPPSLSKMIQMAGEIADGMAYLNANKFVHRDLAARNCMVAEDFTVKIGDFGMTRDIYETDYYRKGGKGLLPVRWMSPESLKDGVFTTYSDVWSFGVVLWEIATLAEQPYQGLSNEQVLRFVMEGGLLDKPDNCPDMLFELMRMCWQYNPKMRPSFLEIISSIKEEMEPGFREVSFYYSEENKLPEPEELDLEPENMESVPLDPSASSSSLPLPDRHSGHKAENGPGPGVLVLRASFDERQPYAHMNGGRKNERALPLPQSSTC
Procedure: as §1

P-MEK/Total MEK = test: Western blot MEK1 phosphorylation, THP-1; format: cell-based; conditions: for IC50: Homo sapiens, read-out: IC50 P-MEK/Total MEK
Procedure: Cells were maintained at 37° C. with 5% CO2.
In a 6 wells plate (Falcon 353046), 2·10^6 cells in 1.5 mL medium are treated for 2 h with compounds. Cells are then collected and cell lysis is performed at 4° C. using RIPA buffer supplemented with protease inhibitors cocktail (Sigma-Aldrich P8340) and phosphatase inhibitors cocktail (Sigma-Aldrich P5726). Following centrifugation 30 min 15000 g 4° C., supernatants are mixed with Laemmli buffer and denaturation is performed by heating 5 min 95° C. 10 μL of samples are subjected to electrophoresis on 15% SDS-PAGE. After electro-transfer (Mini Transblot, Bio-Rad), the PVDF membrane (Merck-Millipore Immobilon P IPVH00010) is blocked with Tris Buffered Saline, pH 7.4 (TBS) with 0.1% Tween 20 and 5% BSA for 1 h at room temperature under agitation. The membrane was rinsed 3 times 10 min at room temperature under agitation with TBS, 0.1% Tween-20 (TBST) and then 1 h at room temperature with anti-phospho-Ser218/222-MEK1 (Merck-Millipore 07-461, 1/1000 dilution) antibody or anti-MEK1 (Merck-Millipore 07-641, 1/1000 dilution) diluted in TBS, 0.1% Tween 20 and 1% BSA. The membrane is then rinsed 3 times 10 min RT under agitation in TBST and incubated for 1 h with anti-rabbit secondary antibody, horseradish peroxidase conjugated (Jackson Immunoresearch #711-036-152) under agitation at room temperature. After three washes 10 min at room temperature in TBST, the detection of total or phosphorylated cofilin was performed using chemiluminescence kit ECL™ Plus (GE Healthcare RPN2132). For each concentration of compound, ratio between phosphorylated cofilin and total cofilin is determined. This ratio is then expressed as percentage of control ratio (i.e., ratio from DMSO treated cells). IC50 P-MEK/Total MEK is then determined.
Selectivity ratios are calculated by dividing the IC50 P-MEK/Total MEK value (μM) by the IC50 Phospho-Ser3-Cofilin/Total Cofilin value (μM).

For `O=S(=O)(Nc1cccc(-c2nc(CCO)sc2-c2ccnc(Nc3ccccc3)n2)c1F)c1c(F)cccc1F` [8 (Na)], the IC50 [1] was < 200 nM.
For `CC(C)(C)c1nc(-c2cccc(NS(=O)(=O)c3c(F)cccc3F)c2F)c(-c2ccnc(Nc3ccccc3)n2)s1` [Compound 1, N-(3-(2-(tert-butyl)-5-(2-(phenylamino)pyrimidin-4-yl)thiazol-4-yl)-2-fluorophenyl)-2,6-difluorobenzenesulfonamide], the activity at 5 µM (SAPK2a(h)) was ≥ 50%, the activity at 5 µM (IR(h), activated) was ≥ 50% and the activity at 5 µM (PAK4(h)) was ≥ 50%. For the same molecule, the activity at 5 µM [2] was ≥ 50%, the activity at 5 µM (p70S6K(h)) was ≥ 50% and the activity at 5 µM (Plk3(h)) was ≥ 50%. For the same molecule, the activity at 5 µM (FAK(h)) was ≥ 50%, the activity at 5 µM (Flt1(h)) was 10 to 50% and the activity at 5 µM (KDR(h)) was 10 to 50%. The activity at 5 µM (Aurora-B(h)) was 10 to 50%, the activity at 5 µM (c-RAF(h)) was 3 to 10% and the activity at 5 µM (Abl(h)) was ≥ 50%. For the same molecule, the activity at 5 µM (IGF-1R(h), activated) was ≥ 50%.
For `O=S(=O)(Nc1cccc(-c2nc(CCO)sc2-c2ccnc(Nc3ccccc3)n2)c1F)c1c(F)cccc1F` [Compound 8, 2,6-difluoro-N-(2-fluoro-3-(2-(2-hydroxyethyl)-5-(2-(phenylamino)pyrimidin-4-yl)thiazol-4-yl)phenyl)benzenesulfonamide], the IC50 (P-MEK/Total MEK; THP-1 cells, 2 h) was 200 to 1000 nM, the Selectivity ratio (P-MEK/Total MEK; THP-1 cells, IC50 P-MEK/Total MEK divided by IC50 Phospho-Ser3-Cofilin/Total Cofilin) was 80 and the IC50 ([1]; Homo sapiens) was < 200 nM.
In the case of `CNC(=O)Cc1nc(-c2cccc(NS(=O)(=O)c3c(F)cccc3F)c2F)c(-c2ccnc(Nc3ccccc3)n2)s1` [Compound 9, 2-(4-(3-(2,6-difluorophenylsulfonamido)-2-fluorophenyl)-5-(2-(phenylamino)pyrimidin-4-yl)thiazol-2-yl)-N-methylacetamide], the IC50 (P-MEK/Total MEK; THP-1, 2 h) is reported as 200 to 1000 nM.
